Measured values taken from ChEMBL document CHEMBL4308908, “Lamellarin-inspired potent topoisomerase I inhibitors with the unprecedented benzo[g][1]benzopyrano[4,3-b]indol-6(13H)-one scaffold” (Bioorg Med Chem, 2019).
Calls of active or inactive are those of the source. No cut-off for these calls is given here.

Legend:
ACHN = test: Antiproliferative activity against human ACHN cells after 48 hrs by SRB assay; format: functional
OVCAR-3 = test: Antiproliferative activity against human OVCAR3 cells after 48 hrs by SRB assay; format: functional; details: OVCAR-3, 48 h
PC-3 = test: Antiproliferative activity against human PC3 cells after 48 hrs by SRB assay; format: functional; details: PC-3, 48 h
NCI-H226 = test: Antiproliferative activity against human NCI-H226 cells after 48 hrs by SRB assay; format: functional; details: NCI-H226, 48 h
[1] = Antiproliferative activity against human HBC4 cells after 48 hrs by SRB assay; format: functional; details: HBC4, 48 h
DMS-273 = test: Antiproliferative activity against human DMS273 cells after 48 hrs by SRB assay; format: functional; details: DMS-273, 48 h
A549 = test: Antiproliferative activity against human A549 cells after 48 hrs by SRB assay; format: functional; details: A549, 48 h
MKN-74 = test: Antiproliferative activity against human MKN74 cells after 48 hrs by SRB assay; format: functional; details: MKN-74, 48 h
RXF 631 = test: Antiproliferative activity against human RXF631L cells after 48 hrs by SRB assay; format: functional; details: RXF 631, 48 h
SK-OV-3 = test: Antiproliferative activity against human SKOV3 cells after 48 hrs by SRB assay; format: functional; details: SK-OV-3, 48 h
MKN-7 = test: Antiproliferative activity against human MKN7 cells after 48 hrs by SRB assay; format: functional; details: MKN-7, 48 h
MKN-28 = test: Antiproliferative activity against human MKN28 cells after 48 hrs by SRB assay; format: functional; details: MKN-28, 48 h
MKN-45 = test: Antiproliferative activity against human MKN45 cells after 48 hrs by SRB assay; format: functional; details: MKN-45, 48 h
DU-145 = test: Antiproliferative activity against human DU145 cells after 48 hrs by SRB assay; format: functional; details: DU-145, 48 h
[2] = target: T1, DNA topoisomerase I (Bos taurus) (UniProt F1MN93); test: Inhibition of calf thymus DNA topoisomerase 1 assessed as reduction in enzyme-mediated relaxation of supercoiled pBR322 plasmid DNA at 10 uM after 30 mins by ethidium bromide staining-based agarose gel electrophoresis
T1 sequence (whole entry): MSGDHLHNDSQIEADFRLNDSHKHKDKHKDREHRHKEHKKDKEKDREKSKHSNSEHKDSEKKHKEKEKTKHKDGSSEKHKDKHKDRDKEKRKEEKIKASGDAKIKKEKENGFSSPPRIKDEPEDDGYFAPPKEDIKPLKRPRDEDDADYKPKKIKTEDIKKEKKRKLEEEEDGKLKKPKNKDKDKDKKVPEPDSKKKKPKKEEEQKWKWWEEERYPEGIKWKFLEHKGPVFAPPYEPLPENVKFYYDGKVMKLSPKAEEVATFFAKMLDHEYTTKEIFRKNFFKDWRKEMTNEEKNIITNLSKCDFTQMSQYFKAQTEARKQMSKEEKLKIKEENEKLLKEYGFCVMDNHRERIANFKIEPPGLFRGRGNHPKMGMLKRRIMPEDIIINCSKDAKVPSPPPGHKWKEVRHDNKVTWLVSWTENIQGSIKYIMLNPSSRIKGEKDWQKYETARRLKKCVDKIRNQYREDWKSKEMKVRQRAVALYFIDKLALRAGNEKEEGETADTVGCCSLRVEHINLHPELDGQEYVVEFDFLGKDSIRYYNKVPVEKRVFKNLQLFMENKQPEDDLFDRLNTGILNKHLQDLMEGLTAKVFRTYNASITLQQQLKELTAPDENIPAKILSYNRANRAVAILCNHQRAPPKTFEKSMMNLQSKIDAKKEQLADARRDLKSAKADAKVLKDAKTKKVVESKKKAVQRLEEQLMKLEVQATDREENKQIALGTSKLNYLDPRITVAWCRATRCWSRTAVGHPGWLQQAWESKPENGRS

[3] = Antiproliferative activity against human BSY1 cells after 48 hrs by SRB assay; format: functional; details: BSY-1, 48 h
DMS-114 = test: Antiproliferative activity against human DMS114 cells after 48 hrs by SRB assay; format: functional; details: DMS-114, 48 h
[4] = Antiproliferative activity against human HBC5 cells after 48 hrs by SRB assay; format: functional; details: HBC5, 48 h
OVCAR-8 = test: Antiproliferative activity against human OVCAR8 cells after 48 hrs by SRB assay; format: functional; details: OVCAR-8, 48 h
NCI-H23 = test: Antiproliferative activity against human NCI-H23 cells after 48 hrs by SRB assay; format: functional; details: NCI-H23, 48 h
NCI-H460 = test: Antiproliferative activity against human NCI-H460 cells after 48 hrs by SRB assay; format: functional; details: NCI-H460, 48 h
NCI-H522 = test: Antiproliferative activity against human NCI-H522 cells after 48 hrs by SRB assay; format: functional; details: NCI-H522, 48 h
SF-539 = test: Antiproliferative activity against human SF539 cells after 48 hrs by SRB assay; format: functional; details: SF-539, 48 h
LOX IMVI = test: Antiproliferative activity against human LOXIMVI cells after 48 hrs by SRB assay; format: functional
SF-295 = test: Antiproliferative activity against human SF295 cells after 48 hrs by SRB assay; format: functional; details: SF-295, 48 h
SNB-75 = test: Antiproliferative activity against human SNB75 cells after 48 hrs by SRB assay; format: functional; details: SNB-75, 48 h
OVCAR-5 = test: Antiproliferative activity against human OVCAR5 cells after 48 hrs by SRB assay; format: functional; details: OVCAR-5, 48 h
MKN-1 = test: Antiproliferative activity against human MKN1 cells after 48 hrs by SRB assay; format: functional; details: MKN-1, 48 h
MCF7 = test: Antiproliferative activity against human MCF7 cells after 48 hrs by SRB assay; format: functional; details: MCF7, 48 h
[5] = target: T1, DNA topoisomerase I (Bos taurus); test: Inhibition of calf thymus DNA topoisomerase 1 assessed as reduction in enzyme-mediated relaxation of supercoiled pBR322 plasmid DNA at 10 uM after 30 mins by agarose gel electrophoresis
SF-268 = test: Antiproliferative activity against human SF268 cells after 48 hrs by SRB assay; format: functional; details: SF-268, 48 h
OVCAR-4 = test: Antiproliferative activity against human OVCAR4 cells after 48 hrs by SRB assay; format: functional; details: OVCAR-4, 48 h
MDA-MB-231 = test: Antiproliferative activity against human MDA-MB-231 cells after 48 hrs by SRB assay; format: functional; details: MDA-MB-231, 48 h
KM12 = test: Antiproliferative activity against human KM12 cells after 48 hrs by SRB assay; format: functional; details: KM12, 48 h
HCC 2998 = test: Antiproliferative activity against human HCC2998 cells after 48 hrs by SRB assay; format: functional; details: HCC 2998, 48 h
HCT-15 = test: Antiproliferative activity against human HCT15 cells after 48 hrs by SRB assay; format: functional; details: HCT-15, 48 h
HCT-116 = test: Antiproliferative activity against human HCT116 cells after 48 hrs by SRB assay; format: functional; details: HCT-116, 48 h
St-4 = test: Antiproliferative activity against human St-4 cells after 48 hrs by SRB assay; format: functional; details: St-4, 48 h
SNB-78 = test: Antiproliferative activity against human SNB78 cells after 48 hrs by SRB assay; format: functional; details: SNB-78, 48 h
U-251 = test: Antiproliferative activity against human U251 cells after 48 hrs by SRB assay; format: functional; details: U-251, 48 h
HT-29 = test: Antiproliferative activity against human HT-29 cells after 48 hrs by SRB assay; format: functional; details: HT-29, 48 h

SMILES: COc1cc2c(ccc3c4c(=O)oc5cc(O)c(OC)cc5c4n(C)c23)cc1O
- GI50 (ACHN; read-out: GI50): < 1 nM
- GI50 (ACHN; read-out: pGI50 (converted)): 1 nM
- GI50 (OVCAR-3): 39.8 nM
- GI50 (PC-3): 132 nM
- GI50 (NCI-H226): 89.1 nM
- GI50 [1]: 13.5 nM
- GI50 (DMS-273): 2.04 nM
- GI50 (A549): 4.17 nM
- GI50 (MKN-74): 52.5 nM
- GI50 (RXF 631): 4.68 µM
- GI50 (SK-OV-3; read-out: GI50): 9.4 nM
- GI50 (SK-OV-3; read-out: pGI50 (converted)): 9.33 nM
- GI50 (MKN-7): 45.7 nM
- GI50 (MKN-28; read-out: GI50): 33 nM
- GI50 (MKN-28; read-out: pGI50 (converted)): 33.1 nM
- GI50 (MKN-45): 32.4 nM
- GI50 (DU-145; read-out: GI50): 2.5 nM
- GI50 (DU-145; read-out: pGI50 (converted)): 2.51 nM
- inhibition [2]: Active
- GI50 [3]: 33.9 nM
- GI50 (DMS-114): 3.89 nM
- GI50 [4]: 95.5 nM
- GI50 (OVCAR-8): 20.4 nM
- GI50 (NCI-H23): 4.57 nM
- GI50 (NCI-H460): 2.14 nM
- GI50 (NCI-H522; read-out: GI50): 1.8 nM
- GI50 (NCI-H522; read-out: pGI50 (converted)): 1.82 nM
- GI50 (SF-539): 2.82 nM
- GI50 (LOX IMVI; read-out: GI50): 2.6 nM
- GI50 (LOX IMVI; read-out: pGI50 (converted)): 2.57 nM
- GI50 (SF-295): 4.57 nM
- GI50 (SNB-75): 8.13 nM
- GI50 (OVCAR-5): 79.4 nM
- GI50 (MKN-1): 37.1 nM
- GI50 (MCF7; read-out: GI50): 9.6 nM
- GI50 (MCF7; read-out: pGI50 (converted)): 9.55 nM
- inhibition [5]: Active
- GI50 (SF-268): 2.19 nM
- GI50 (OVCAR-4): 26.9 nM
- GI50 (MDA-MB-231): 115 nM
- GI50 (KM12): 46.8 nM
- GI50 (HCC 2998): 39.8 nM
- GI50 (HCT-15): 162 nM
- GI50 (HCT-116; read-out: GI50): 8.8 nM
- GI50 (HCT-116; read-out: pGI50 (converted)): 8.91 nM
- GI50 (St-4): 10 µM
- GI50 (SNB-78): 200 nM
- GI50 (U-251; read-out: GI50): 1.3 nM
- GI50 (U-251; read-out: pGI50 (converted)): 1.32 nM
- GI50 (HT-29): 3.89 µM
